The target in test [1] is T1, NaDC1 (Homo sapiens, UniProt Q13183, N141A).
T1 construct: gene SLC13A2; full length, homodimer; N-terminal FLAG purified from HEK293F (structures, natural variant I550V); GFP and FLAG tagged in HEK293T for currents
T1 sequence (Q13183 1-592 N141A): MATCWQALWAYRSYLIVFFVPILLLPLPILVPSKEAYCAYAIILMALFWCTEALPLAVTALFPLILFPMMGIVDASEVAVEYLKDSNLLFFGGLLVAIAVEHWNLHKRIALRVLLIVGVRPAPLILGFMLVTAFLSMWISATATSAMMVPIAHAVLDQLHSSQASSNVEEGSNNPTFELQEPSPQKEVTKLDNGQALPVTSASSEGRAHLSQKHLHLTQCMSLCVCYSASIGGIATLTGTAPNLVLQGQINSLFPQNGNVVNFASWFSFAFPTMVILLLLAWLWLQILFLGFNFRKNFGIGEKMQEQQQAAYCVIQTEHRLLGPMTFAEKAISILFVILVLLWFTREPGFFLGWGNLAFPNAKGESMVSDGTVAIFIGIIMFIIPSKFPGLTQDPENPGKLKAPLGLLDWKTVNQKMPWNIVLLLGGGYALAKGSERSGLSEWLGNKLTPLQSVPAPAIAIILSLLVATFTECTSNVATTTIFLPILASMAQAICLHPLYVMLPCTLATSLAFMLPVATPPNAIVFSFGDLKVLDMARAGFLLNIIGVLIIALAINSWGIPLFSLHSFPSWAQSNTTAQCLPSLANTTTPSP
Put plainly: CD thermal melting at […] nm. The format is binding. The note with it: absolute Tm in presence of citrate, not a shift.

Test [2] addresses T2, NaDC1 (Homo sapiens, UniProt Q13183, S140A).
T2 construct: gene SLC13A2; full length, homodimer; N-terminal FLAG purified from HEK293F (structures, natural variant I550V); GFP and FLAG tagged in HEK293T for currents
T2 sequence (Q13183 1-592 S140A): T1 sequence (Q13183 1-592 N141A) with S140A, A141N
Nature of the test: CD thermal melting at […] nm. The settings on record: absolute Tm in presence of citrate, not a shift. The format is binding.

Test [3] concerns the target T3, NaDC1 (Homo sapiens, UniProt Q13183, I550V).
T3 construct: gene SLC13A2; full length, homodimer; N-terminal FLAG purified from HEK293F (structures, natural variant I550V); GFP and FLAG tagged in HEK293T for currents
T3 sequence (Q13183 1-592 I550V): T1 sequence (Q13183 1-592 N141A) with A141N, I550V
Nature of the test: cryo-EM structure ([…] Å). The format is binding. The note with it: 10 mM sodium citrate; substrate site; Na+ at Na1 and Na2.

For test [4], the target named is T4, NaDC1 (Homo sapiens, UniProt Q13183, R108A).
T4 construct: gene SLC13A2; full length, homodimer; N-terminal FLAG purified from HEK293F (structures, natural variant I550V); GFP and FLAG tagged in HEK293T for currents
T4 sequence (Q13183 1-592 R108A): T1 sequence (Q13183 1-592 N141A) with R108A, A141N
Put plainly: whole-cell patch clamp, transfected HEK293T. The format is cell-based. The settings on record: citrate-induced current; 140 mM NaCl bath, pH 7.4.

Where a chain is given by its changes, count along the chain named.

`O=C(O)CC(O)(CC(=O)O)C(=O)O` [citrate]: the figures for the Tm on NaDC1 [1] and on NaDC1 [2] were 61.3 ± 0.5 °C and 57.1 ± 0.7 °C, respectively. Further, the “cryo-EM structure (2.7 Å)” value on NaDC1 [3] was “we discern two sodium ions and one citrate molecule distinctly situated within a single protomer”. Further, on NaDC1 [4], the “whole-cell patch clamp, transfected HEK293T” value is listed as “The R108A mutant substantially reduced the citrate-induced current than WT in NaDC1”.

The values are drawn from article PMC10980263, “Cryo-EM structures of the human NaS1 and NaDC1 transporters revealed the elevator transport and allosteric regulation mechanism” (Science Advances, 2024).
